From paper PMC8800119 (The Journal of Biological Chemistry, 2022)

Biological target: T1, glutaminase C (GAC) (Homo sapiens, UniProt O94925, Y466W)
T1 sequence (O94925 72-550 Y466W): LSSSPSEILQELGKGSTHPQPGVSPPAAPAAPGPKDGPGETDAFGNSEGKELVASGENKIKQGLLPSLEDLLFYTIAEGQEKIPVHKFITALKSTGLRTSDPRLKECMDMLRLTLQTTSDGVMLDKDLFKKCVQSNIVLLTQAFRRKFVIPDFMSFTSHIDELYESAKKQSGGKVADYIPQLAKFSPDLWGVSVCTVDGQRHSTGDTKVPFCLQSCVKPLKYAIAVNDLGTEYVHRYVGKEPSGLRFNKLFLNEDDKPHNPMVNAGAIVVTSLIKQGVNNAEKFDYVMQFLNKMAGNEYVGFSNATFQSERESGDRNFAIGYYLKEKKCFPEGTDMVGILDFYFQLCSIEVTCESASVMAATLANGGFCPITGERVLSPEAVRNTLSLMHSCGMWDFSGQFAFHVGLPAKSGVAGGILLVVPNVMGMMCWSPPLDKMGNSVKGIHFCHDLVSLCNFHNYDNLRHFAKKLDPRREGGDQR
Assay: Trp466 fluorescence titration of phosphate at […] glutamine
Assay type: binding

Structure (SMILES): O=P(O)(O)O [inorganic phosphate]
- Kd: 8.5 ± 1.9 mM
